Measured values reported in the NIST ThermoML archive (doi:10.1021/je060411g).
± gives the expanded uncertainty stated by the source.

How the values were obtained:
[1] = molar heat capacity at constant pressure; conditions: 101.33 kPa
[2] = Glass

CC(C)CCO [3-methylbutan-1-ol]
[1]
Conditions | molar heat capacity at constant pressure [J/K/mol]
79.29 K, Glass | 64.16 ± 1.6
79.93 K, Glass | 64.23 ± 1.6
81.22 K, Glass | 65.13 ± 1.6
83.16 K, Glass | 66.6 ± 1.6
85.07 K, Glass | 67.98 ± 1.7
86.97 K, Glass | 69.22 ± 1.7
88.88 K, Glass | 70.53 ± 1.7
90.79 K, Glass | 71.96 ± 2.1
92.71 K, Glass | 73.36 ± 2.1
94.62 K, Glass | 74.71 ± 2.2
96.54 K, Glass | 76.12 ± 2.2
98.47 K, Glass | 77.7 ± 2.2
100.4 K, Glass | 79.43 ± 2.2
102.33 K, Glass | 80.27 ± 2.3
104.26 K, Glass | 81.54 ± 2.3
106.19 K, Glass | 83.08 ± 2.3
108.13 K, Glass | 84.68 ± 2.3
110.07 K, Glass | 86.19 ± 2.4
112.01 K, Glass | 87.96 ± 2.4
113.94 K, Glass | 90.43 ± 2.4
115.88 K, Glass | 94.62 ± 2.5
123.04 K, Liquid | 144.09 ± 3.5
124.93 K, Liquid | 144.11 ± 3.5
126.89 K, Liquid | 144.29 ± 3.5
128.85 K, Liquid | 144.62 ± 3.5
130.82 K, Liquid | 144.96 ± 3.5
132.79 K, Liquid | 145.22 ± 3.5
134.76 K, Liquid | 145.47 ± 3.5
136.73 K, Liquid | 145.74 ± 3.5
138.7 K, Liquid | 146.13 ± 3.5
140.67 K, Liquid | 146.33 ± 3.5
142.65 K, Liquid | 146.61 ± 3.5
144.62 K, Liquid | 146.82 ± 3.5
146.59 K, Liquid | 147.14 ± 3.5
148.57 K, Liquid | 147.5 ± 3.5
150.54 K, Liquid | 147.86 ± 3.5
152.52 K, Liquid | 148.08 ± 3.6
154.49 K, Liquid | 148.41 ± 3.6
156.46 K, Liquid | 148.76 ± 3.6
158.43 K, Liquid | 148.95 ± 3.6
160.41 K, Liquid | 149.4 ± 3.6
162.38 K, Liquid | 149.76 ± 3.6
164.35 K, Liquid | 149.96 ± 3.6
166.32 K, Liquid | 150.38 ± 3.6
168.29 K, Liquid | 150.9 ± 3.6
170.27 K, Liquid | 151.21 ± 3.6
172.24 K, Liquid | 151.76 ± 3.6
174.21 K, Liquid | 152.03 ± 3.6
176.19 K, Liquid | 152.42 ± 3.6
178.16 K, Liquid | 152.92 ± 3.6
180.14 K, Liquid | 153.49 ± 3.7
182.11 K, Liquid | 153.84 ± 3.7
184.09 K, Liquid | 154.42 ± 3.7
186.07 K, Liquid | 154.93 ± 3.7
188.05 K, Liquid | 155.51 ± 3.7
190.03 K, Liquid | 156.14 ± 3.7
192.01 K, Liquid | 156.62 ± 3.7
193.99 K, Liquid | 157.15 ± 3.7
195.96 K, Liquid | 157.72 ± 3.8
197.94 K, Liquid | 158.12 ± 3.8
199.92 K, Liquid | 158.79 ± 3.8
201.91 K, Liquid | 159.5 ± 3.8

Conditions | Glass transition temperature [°C]
[2] | -155 ± 3
